Laboratory results taken from PubChem BioAssay AID2060883 (Molecular Pharmacology Branch, DTP, NCI, 2025).
Values joined by “and” are separate entries in the source; they are usually repeats but may differ in a detail not shown here. Identical values can stand only once.

Tested on: 843782-103-R-J1-PDC complex spheroid viability
Test: Anticancer human tumor 843782-103-R-J1-PDC patient-derived lung adenocarcinoma cell line growth inhibition [RAS]
Conditions: for viability, T/C: stronger effect = lower value
Description: RAS pathway inhibitors in Combinations in Complex Spheroids
A high-throughput screen of multi-cell type tumor spheroids was designed to identify active combinations of RAS pathway inhibitors and targeted small molecules. Complex spheroids include a stromal component modeled by human endothelial cells (HUVEC) and fibroblasts modeled by human mesenchymal stem cells (MSCs). The concentration ranges selected for each drug and investigational agent were based upon clinically achievable concentrations if the clinical Cmax of the agent was known.
Compounds. The drugs and investigational agents: abemaciclib (NSC768073), cobimetinib (NSC768068), divarasib (GDC6063, NSC841802), docetaxel (NSC628503), GDC-1971 (RLY-1971, NSC841576), gemcitabine (NSC613327), inavolisib (NSC800729), ipatasertib (NSC767898), KB-0742 (NSC834161), MRTX-1133 (NSC836407), osimertinib (NSC779217), RMC-4630 (NSC839698), RMC-6236 (NSC851965), RMC-6291 (NSC852671), Ro-3306 (NSC812927), sapanisertib (NSC764658), SN-38 (NSC673596), staurosporine (NSC755774), SY5609 (NSC837396), and tovorafenib (DAY101, NSC766906), were obtained from the National Cancer Institute (NCI) Developmental Therapeutics Program Chemical Repository. The FDA-approved anticancer drug set is available from the NCI Developmental Therapeutics Program. […] The stock solutions were prepared in dimethyl sulfoxide (DMSO, Sigma-Aldrich, St. Louis, MO, cat. D2650) at 800-fold the tested concentration and stored at -70 degrees C prior to their use. All drugs and investigational agents were tested over a range starting from a high concentration at or near the clinical Cmax and decreasing in half-log increments. If the clinical Cmax for an agent had not been determined, the highest concentration tested was 10 microM.
Cell Culture. All cells were maintained in an incubator at 37 degrees C and 5% CO2 with 95% humidity. The PDC lines were cultured according to standard operating procedures established by the NCI PDMR. All PDCs were thawed and cultured in Matrigel-coated flasks prepared with a working solution of 1X Ham's F-12 nutrient mix, without supplementation (Invitrogen, Waltham, MA, cat. 11765054), 100 U/mL penicillin-streptomycin (Invitrogen, cat. 15140122), and 2.5% Matrigel (Corning Inc., Corning, NY, cat. 354248) for the first three passages. The 362531-283-R-J2-PDC and 782815-120-R-J1-PDC lines were cultured in 6C/Colon 1B media, which includes advanced DMEM/F-12 (Thermo Fisher Scientific, cat. 12634028), 10 mM HEPES (Thermo Fisher Scientific, cat. 15630080), 1X GlutaMAX supplement (Thermo Fisher Scientific, cat. 35050061), 0.1 mg/mL primocin (InvivoGen, San Diego, CA, cat. ant-pm-2), 10% defined fetal bovine serum, heat inactivated (HyClone Laboratories Inc., Logan, UT, cat. SH30070.03HI), 50% L-WRN conditioned media (ATCC, cat. CRL-3276), 1.25 mM N-Acetyl-L-cysteine (Sigma-Aldrich, cat. A9165), 10 mM nicotinamide (Sigma-Aldrich, cat. N0636), 1X B-27 supplement (Thermo Fisher Scientific, cat. 17504044), 1X N-2 supplement (Thermo Fisher Scientific, cat. 17502048), 50 ng/mL human EGF (Thermo Fisher Scientific, cat. PHG0311), and 10 microM Y-27632 dihydrochloride (Tocris Bioscience, cat. 1254). The K12877-001-R-J1-PDC line was cultured in 6I media, which includes all 6C/Colon 1B media plus 10 ng/mL human FGF-10 (PeproTech, cat. 100-26), 1 ng/mL human FGF-2 (PeproTech, cat. 100-18B), 1 µM prostaglandin E2 (Tocris Bioscience, cat. 2296), […] hydrocortisone (Sigma-Aldrich, cat. H4001), and […] bovine insulin (Sigma-Aldrich, cat. I6634). The K86415-001-R-J1-PDC line was cultured in 6D media, which includes all 6C/Colon 1B media components minus the L-WRN conditioned media. The 485176-168-R4-J1-PDC was cultured in PANC media, which includes all 6C/Colon 1B media plus 100 ng/mL human FGF-10 (PeproTech, cat. 100-26), 500 nM SB-431542 (Selleckchem, cat. S1067), and 10 nM gastrin (Tocris Bioscience, cat. 3006). […]
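Note: viability read after seven days of compound exposure.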

Compound | viability, T/C (compound 0.00316 µM) | viability, T/C (compound 0.0316 µM) | viability, T/C (compound 0.316 µM) | viability, T/C (compound 1 µM) | IC50 (compound alone, run of 09/09/2024) | IC50 (curve of compound) | viability, T/C (compound 0.01 µM) | viability, T/C (compound 0.1 µM) | viability, T/C (compound 0.000316 µM) | viability, T/C (compound 0.001 µM) | viability, T/C (compound 0.000949 µM) | viability, T/C (compound 0.003 µM) | viability, T/C (compound 0.00949 µM) | viability, T/C (compound 0.0949 µM) | viability, T/C (compound 0.3 µM) | viability, T/C (compound 0.03 µM) | IC50 (compound alone, run of 08/26/2024) | IC50 (compound alone, run of 08/20/2024)
C=CC(=O)N1CCN(c2nc(OCC3CCCN3C)nc3c(F)c(-c4nc(N)cc(C)c4C(F)(F)F)c(Cl)cc23)C(C)C1 (centres undefined) | 89.6% [middle of 12 runs] | 86.8% [middle of 12 runs] | 85.5% [middle of 12 runs] | 86% [middle of 12 runs] | > 1000 nM | > 1000 nM | – | – | – | – | – | – | – | – | – | – | – | –
C=CC(=O)Nc1cc(Nc2nccc(-c3cn(C)c4ccccc34)n2)c(OC)cc1N(C)CCN(C)C | 101% [middle of 4 runs] | 95.9% [middle of 4 runs] | 91.4% [middle of 4 runs] | 68% [middle of 4 runs] | – | > 1000 nM | 99.7% [middle of 4 runs] | 102% (2×) and 84% and 95.2% | – | – | – | – | – | – | – | – | – | –
CC(C)n1nc(-c2ccc3oc(N)nc3c2)c2c(N)ncnc21 | 91.6% [middle of 4 runs] | 48.1% [middle of 4 runs] | – | – | – | 31.2 nM [middle of 4 runs] | 72.3% [middle of 4 runs] | 28.8% [middle of 4 runs] | 108% [middle of 4 runs] | 94% [middle of 4 runs] | – | – | – | – | – | – | – | –
CC1(C)CCC(Nc2ncc(C(F)(F)F)c(-c3c[nH]c4c(P(C)(C)=O)c(C#N)ccc34)n2)CN1 (centres undefined) | – | – | – | – | – | 13.6 nM [middle of 4 runs] | – | – | – | – | 107% (2×) and 108% and 102% | 93.6% [middle of 4 runs] | 58.3% [middle of 4 runs] | 22.4% [middle of 4 runs] | 19.5% [middle of 4 runs] | – | – | –
CCN1CCN(Cc2ccc(Nc3ncc(F)c(-c4cc(F)c5nc(C)n(C(C)C)c5c4)n3)nc2)CC1 | 105% [middle of 4 runs] | 99.3% [middle of 4 runs] | 95.1% [middle of 4 runs] | 70% [middle of 4 runs] | – | > 1000 nM and 906 nM | 97.8% [middle of 4 runs] | 102% (2×) and 90.9% and 101% | – | – | – | – | – | – | – | – | – | –
CCc1c2c(nc3ccc(O)cc13)-c1cc3c(c(=O)n1C2)COC(=O)[C@]3(O)CC | – | – | – | – | – | 1.88 nM [middle of 4 runs] | – | – | – | – | 94.2% [middle of 4 runs] | 26% [middle of 4 runs] | 6.94% [middle of 4 runs] | 1.33% [middle of 4 runs] | 0.94% [middle of 4 runs] | 3.31% [middle of 4 runs] | – | –
CCn1c(-c2cc(N3CCN(C)CC3)cnc2C(C)OC)c2c3cc(ccc31)-c1csc(n1)CC(NC(=O)C1CC1C)C(=O)N1CCCC(N1)C(=O)OCC(C)(C)C2 (centres undefined) | – | – | – | – | – | – | – | – | – | – | 85.8% [middle of 8 runs] | 65.7% [middle of 8 runs] | 37.1% [middle of 8 runs] | 17.1% [middle of 8 runs] | 14.2% [middle of 8 runs] | 22.4% [middle of 8 runs] | 5.72 nM [middle of 8 runs] | –
CCn1c(-c2cccnc2C(C)OC)c2c3cc(ccc31)N1CCOC(CC(NC(=O)C(C(C)C)N(C)C(=O)C3(F)CCN(C(=O)C#CC(C)(C)N(C)C)CC3)C(=O)N3CCCC(N3)C(=O)OCC(C)(C)C2)C1 (centres undefined) | – | – | – | – | – | – | – | – | – | – | 82.9% [middle of 8 runs] | 80.1% [middle of 8 runs] | 79.1% [middle of 8 runs] | 68.4% [middle of 8 runs] | 67.3% [middle of 8 runs] | 75.8% [middle of 8 runs] | – | > 300 nM
Nc1ccn(C2OC(CO)C(O)C2(F)F)c(=O)n1 (centres undefined) | 107% [middle of 4 runs] | – | 2.19% [middle of 4 runs] | 2.92% [middle of 4 runs] | – | 34.1 nM [middle of 4 runs] | 101% [middle of 4 runs] | 3.52% [middle of 4 runs] | – | – | – | – | – | – | – | – | – | –
O=C(c1ccc(F)c(F)c1Nc1ccc(I)cc1F)N1CC(O)([C@@H]2CCCCN2)C1 | 99.8% and 99.4% and 102% (2×) | – | 48.7% [middle of 4 runs] | 27.1% [middle of 4 runs] | – | – | 93.1% [middle of 4 runs] | – | – | – | – | – | – | – | – | – | – | –
